This passage reports EC50 results from BindingDB's records for doi:10.1016/j.bmcl.2018.05.009 (Vanderbilt University Medical Center, 2018).

In assay [1] the target is T1, Muscarinic acetylcholine receptor M1 (Homo sapiens, UniProt P11229).
T1 sequence (P11229 whole entry): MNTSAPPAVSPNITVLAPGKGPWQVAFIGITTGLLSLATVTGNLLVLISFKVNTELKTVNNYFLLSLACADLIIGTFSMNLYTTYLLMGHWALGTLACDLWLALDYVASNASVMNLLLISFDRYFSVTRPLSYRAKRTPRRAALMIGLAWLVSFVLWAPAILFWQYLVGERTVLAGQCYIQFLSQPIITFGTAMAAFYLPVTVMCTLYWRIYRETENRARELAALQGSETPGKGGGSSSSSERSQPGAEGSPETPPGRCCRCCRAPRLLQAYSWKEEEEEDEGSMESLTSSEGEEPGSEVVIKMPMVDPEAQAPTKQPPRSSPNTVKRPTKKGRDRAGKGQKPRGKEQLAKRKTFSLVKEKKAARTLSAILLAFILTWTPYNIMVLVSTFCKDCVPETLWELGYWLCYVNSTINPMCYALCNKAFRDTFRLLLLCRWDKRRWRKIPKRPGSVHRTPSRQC
Nature of the assay: Positive allosteric modulation of human muscarinic acetylcholine M1 receptor expressed in CHO cells assessed as potentiation of acetylcholine-induced calcium mobilization. Background: Calcium flux is commonly read through the fluorescence of an indicator in the cells.

Assay [2] concerns the target T1, Muscarinic acetylcholine receptor M1. Nature of the assay: ChEBML_1712853. From the text:
Positive allosteric modulation of human muscarinic acetylcholine M1 receptor expressed in CHO-NFAT cells assessed as potentiation of acetylcholine-induced calcium mobilization after 4 hrs by CCF4-AM dye-based assay

Regarding `Cn1cc(-c2ccc(CN3CC(C(=O)N[C@H]4CCCC[C@@H]4O)Oc4ccccc43)cn2)cn1` (some centres not stated), the EC50 in assay [1] came to 178 nM.
Regarding `O=C(N[C@H]1CCCC[C@@H]1O)C1CN(Cc2ccc(-n3cccn3)cc2)c2ccccc2O1` (some centres not stated), the concentration for a half-maximal effect (EC50) in assay [2] amounted to 794 nM.

By EC50 is commonly meant the concentration at which the effect is half-maximal.
